Activity calls are given as the source filed them. The rule behind the calls is not given here.
Key:
[1] = system: Escherichia coli; experiment: Inhibition of Escherichia coli C-terminal hexahistidine tagged DHFR at 5 uM incubated for 5 mins in presence of NADPH by measuring oxidation of NADPH to NADP+
[2] = system: Escherichia coli; experiment: Antibacterial activity against Escherichia coli ATCC 25922 assessed as reduction in microbial growth after 16 to 18 hrs by microbroth dilution method; assay type: functional; conditions: time 16-18 hrs
[3] = system: Klebsiella pneumoniae; experiment: Antibacterial activity against Klebsiella pneumoniae ATCC 700603 assessed as reduction in microbial growth after 16 to 18 hrs by microbroth dilution method; assay type: functional; conditions: time 16-18 hrs
[4] = system: Acinetobacter baumannii; experiment: Antibacterial activity against Acinetobacter baumannii ATCC 19606 assessed as reduction in microbial growth after 16 to 18 hrs by microbroth dilution method; assay type: functional; conditions: time 16-18 hrs
[5] = Inhibition of Escherichia coli C-terminal hexahistidine tagged DHFR incubated for 5 mins in presence of NADPH by measuring oxidation of NADPH to NADP+
[6] = system: Escherichia coli; experiment: Binding affinity to Escherichia coli C-terminal hexahistidine tagged DHFR assessed as change in enthalpy at 0.2 mM by isothermal titration calorimetry method
[7] = system: Escherichia coli; experiment: Binding affinity to Escherichia coli C-terminal hexahistidine tagged DHFR assessed as change in entropy at 0.2 mM by isothermal titration calorimetry method
[8] = Binding affinity to Escherichia coli C-terminal hexahistidine tagged DHFR assessed as dissociation constant by isothermal titration calorimetry method
[9] = system: Escherichia coli; experiment: Binding affinity to Escherichia coli C-terminal hexahistidine tagged DHFR assessed as change in gibbs free energy at 0.2 mM by isothermal titration calorimetry method
[10] = system: Acinetobacter baumannii; experiment: Antibacterial activity against multi drug resistant Acinetobacter baumannii CCPM(A)-100902 assessed as reduction in microbial growth after 16 to 18 hrs by microbroth dilution method; assay type: functional; conditions: time 16-18 hrs
[11] = system: Acinetobacter baumannii; experiment: Antibacterial activity against multi drug resistant Acinetobacter baumannii CCPM(A)-100903 assessed as reduction in microbial growth after 16 to 18 hrs by microbroth dilution method; assay type: functional; conditions: time 16-18 hrs
[12] = system: Acinetobacter baumannii; experiment: Antibacterial activity against multi drug resistant Acinetobacter baumannii CCPM(A)-1100708 assessed as reduction in microbial growth after 16 to 18 hrs by microbroth dilution method; assay type: functional; conditions: time 16-18 hrs
[13] = system: Acinetobacter baumannii; experiment: Antibacterial activity against Acinetobacter baumannii CCPM(A)-100946 assessed as reduction in microbial growth after 16 to 18 hrs by microbroth dilution method; assay type: functional; conditions: time 16-18 hrs
[14] = system: Acinetobacter baumannii; experiment: Antibacterial activity against Acinetobacter baumannii CCPM(A)-100947 assessed as reduction in microbial growth after 16 to 18 hrs by microbroth dilution method; assay type: functional; conditions: time 16-18 hrs
[15] = system: Klebsiella pneumoniae; experiment: Antibacterial activity against ESBL-producing Klebsiella pneumoniae CCPM(A)-081514 assessed as reduction in microbial growth after 16 to 18 hrs by microbroth dilution method; assay type: functional; conditions: time 16-18 hrs
[16] = system: Klebsiella pneumoniae; experiment: Antibacterial activity against ESBL-producing Klebsiella pneumoniae CCPM(A)-081568 assessed as reduction in microbial growth after 16 to 18 hrs by microbroth dilution method; assay type: functional; conditions: time 16-18 hrs
[17] = system: Klebsiella pneumoniae; experiment: Antibacterial activity against Klebsiella pneumoniae CCPM(A)-081018 assessed as reduction in microbial growth after 16 to 18 hrs by microbroth dilution method; assay type: functional; conditions: time 16-18 hrs
[18] = system: Escherichia coli; experiment: Antibacterial activity against Escherichia coli CCPM(A)-0715118 assessed as reduction in microbial growth after 16 to 18 hrs by microbroth dilution method; assay type: functional; conditions: time 16-18 hrs
[19] = system: Escherichia coli; experiment: Antibacterial activity against ESBL-producing Escherichia coli CCPM(A)-071030 assessed as reduction in microbial growth after 16 to 18 hrs by microbroth dilution method; assay type: functional; conditions: time 16-18 hrs
[20] = system: Escherichia coli; experiment: Antibacterial activity against ESBL-producing Escherichia coli CCPM(A)-0715117 assessed as reduction in microbial growth after 16 to 18 hrs by microbroth dilution method; assay type: functional; conditions: time 16-18 hrs
[21] = system: Escherichia coli; experiment: Antibacterial activity against ESBL-producing Escherichia coli CCPM(A)-0715142 assessed as reduction in microbial growth after 16 to 18 hrs by microbroth dilution method; assay type: functional; conditions: time 16-18 hrs
[22] = system: Staphylococcus aureus; experiment: Antibacterial activity against Staphylococcus aureus ATCC 29213 assessed as reduction in microbial growth after 16 to 18 hrs by microbroth dilution method; assay type: functional; conditions: time 16-18 hrs
[23] = system: Staphylococcus aureus; experiment: Antibacterial activity against methicillin-resistant Staphylococcus aureus ATCC 43300 assessed as reduction in microbial growth after 16 to 18 hrs by microbroth dilution method; assay type: functional; conditions: time 16-18 hrs
[24] = system: Enterococcus faecium; experiment: Antibacterial activity against vancomycin-resistant Enterococcus faecium ATCC 51559 assessed as reduction in microbial growth after 16 to 18 hrs by microbroth dilution method; assay type: functional; conditions: time 16-18 hrs
[25] = system: Escherichia coli; experiment: Antibacterial activity against Escherichia coli ATCC 25922 overexpressing DHFR assessed as reduction in microbial growth after 16 to 18 hrs by microbroth dilution method; assay type: functional; conditions: time 16-18 hrs
[26] = target: Thymidylate synthase (Escherichia coli K-12, UniProt P0A884); experiment: Inhibition of Escherichia coli N-terminal hexahstidine-tagged TS by steady-state kinetic analysis
Chain of Thymidylate synthase (P0A884 whole entry): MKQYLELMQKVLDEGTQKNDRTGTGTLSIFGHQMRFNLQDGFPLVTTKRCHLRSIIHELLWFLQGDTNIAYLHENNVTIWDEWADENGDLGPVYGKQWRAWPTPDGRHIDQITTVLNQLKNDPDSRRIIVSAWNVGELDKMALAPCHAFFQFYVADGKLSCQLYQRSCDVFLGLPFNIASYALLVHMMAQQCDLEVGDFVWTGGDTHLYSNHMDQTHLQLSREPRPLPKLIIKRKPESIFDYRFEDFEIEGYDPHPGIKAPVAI

[27] = target: Thymidylate synthase (Escherichia coli K-12) (UniProt P0A884); experiment: Binding affinity to Escherichia coli […] hexahistidine-tagged TS at 20 uM by biolayer interferometry assay
Chain of Thymidylate synthase (Escherichia coli K-12) (P0A884 whole entry, looked up): as the sequence (P0A884 whole entry) above

[28] = system: Klebsiella pneumoniae; experiment: Antibacterial activity against ESBL-producing Klebsiella pneumoniae ATCC 700603 assessed as reduction in microbial growth after 16 to 18 hrs by microbroth dilution method; assay type: functional; conditions: time 16-18 hrs
[29] = system: Escherichia coli; experiment: Antibacterial activity against Escherichia coli ATCC 25922 assessed as blockage of folate pathway after 16 to 18 hrs in presence of thymine by microbroth dilution method; assay type: functional; conditions: time 16-18 hrs
[30] = system: Escherichia coli; experiment: Antibacterial activity against Escherichia coli ATCC 25922 overexpressing DHFR assessed as fold increase in MIC after 16 to 18 hrs by microbroth dilution method; assay type: functional; conditions: time 16-18 hrs
[31] = system: Escherichia coli; experiment: Antibacterial activity against Escherichia coli ATCC 25922 assessed as blockage of folate pathway after 16 to 18 hrs in presence of thymine by measuring fold increase in MIC by microbroth dilution method; assay type: functional; conditions: time 16-18 hrs
[32] = target: Thymidylate synthase (Escherichia coli K-12) (UniProt P0A884); experiment: Inhibition of Escherichia coli N-terminal hexahstidine-tagged TS at 500 uM by steady-state kinetic analysis
[33] = system: Escherichia coli; experiment: Bactericidal activity against Escherichia coli ATCC 25922 at 0.5 to 8 times MIC by counting bacterial colonies upto 24 hrs time-kill assay; assay type: functional, organism-based; conditions: DDE = dose-dependent effect
[34] = system: Escherichia coli; experiment: Bactericidal activity against Escherichia coli ATCC 25922 assessed as reductions in colony forming unit at 8 times MIC measured for 24 hrs by time-kill assay; assay type: functional
[35] = system: Escherichia coli; experiment: Bactericidal activity against Escherichia coli ATCC 25922 assessed as suppression of regrowth of colonies at 4 to 8 times MIC measured for 24 hrs by time-kill assay; assay type: functional, organism-based
[36] = system: Escherichia coli; experiment: Bactericidal activity against Escherichia coli ATCC 25922 at 30 pg/ml measured for 24 hrs in presence of SMZ by time-kill assay; assay type: functional, organism-based
[37] = system: Klebsiella pneumoniae; experiment: Bactericidal activity against Klebsiella pneumoniae CCPM(A)-081514 at 0.5 ug/ml measured for 24 hrs in presence of SMZ by time-kill assay; assay type: functional, organism-based; conditions: dose 0.5 µg/ml
[38] = system: Escherichia coli; experiment: Synergistic antibacterial activity against Escherichia coli ATCC 25922 assessed as fractional inhibitory concentration index at 30 pg/ml measured for 24 hrs in presence of SMZ by microdilution checkerboard assay; assay type: functional
[39] = system: Klebsiella pneumoniae; experiment: Synergistic antibacterial activity against Klebsiella pneumoniae CCPM(A)-081514 assessed as fractional inhibitory concentration index at 0.5 ug/ml measured for 24 hrs in presence of SMZ by microdilution checkerboard assay; assay type: functional; conditions: dose 0.5 µg/ml
[40] = system: Escherichia coli; experiment: In vivo Antibacterial activity against Escherichia coli ATCC 25922 in septicemia ICR mouse model assessed as increase in mouse survival time administered iv measured after 14 hrs; assay type: functional, organism-based; conditions: dose 7.5-15 mg/kg, DDE = dose-dependent effect
[41] = system: Escherichia coli; experiment: In vivo Antibacterial activity against Escherichia coli ATCC 25922 in septicemia ICR mouse model assessed as increase in mouse survival time at 15 mg/kg,iv measured after 14 hrs; assay type: functional
[42] = system: Escherichia coli; experiment: In vivo Antibacterial activity against Escherichia coli ATCC 25922 in septicemia ICR mouse model assessed as reduction in bacterial load at 50 mg/kg, iv measured after 2 to 4 hrs; assay type: functional; conditions: time 2-4 hrs
[43] = system: Escherichia coli; experiment: Potency index ratio of IC50 for TMP to IC50 for test compound for inhibition of Escherichia coli C-terminal hexahistidine tagged DHFR
[44] = system: Escherichia coli; experiment: Bactericidal activity against Escherichia coli ATCC 25922 at 0.5 to 8 times MIC by counting bacterial colonies time-kill assay; assay type: functional, organism-based; conditions: time <= 24.0 hrs, TDE = time-dependent effect
[45] = system: Escherichia coli; experiment: In vivo Antibacterial activity against Escherichia coli ATCC 25922 in septicemia ICR mouse model assessed as increase in mouse survival rate administered iv measured […]; assay type: functional, organism-based; conditions: dose 7.5-15 mg/kg, DDE = dose-dependent effect
[46] = target: Thymidylate synthase (Escherichia coli K-12) (UniProt P0A884); experiment: Binding affinity to Escherichia coli N-terminal hexahistidine tagged TS assessed as change in gibbs free energy at 0.2 mM by isothermal titration calorimetry method
[47] = target: Thymidylate synthase (Escherichia coli K-12) (UniProt P0A884); experiment: Binding affinity to Escherichia coli N-terminal hexahistidine tagged TS assessed as change in entropy at 0.2 mM by isothermal titration calorimetry method

## Nc1nc(N)c2c(ccc3c2ccn3Cc2ccc(C(=O)N3CCOCC3)cc2)n1
[1]
  inhibition: 80.3%
[2]
  MIC: 8 µg/mL
[3]
  MIC: 32 µg/mL
[4]
  MIC: 128 µg/mL

## Nc1nc(N)c2c(ccc3c2ccn3Cc2cccs2)n1
[1]
  inhibition: 92.8%
[2]
  MIC: 0.002 µg/mL
[3]
  MIC: 1 µg/mL
[4]
  MIC: 1 µg/mL
[5]
  IC50: 15.9 nM
[6]
  deltaH: -18.5 kcal/mol
[7]
  deltaS: -24.1 cal/mol/deg
[8]
  Kd: 4.85 nM
[9]
  deltaG: -11.3 kcal/mol
[10]
  MIC: 0.25 µg/mL
[11]
  MIC: 8 µg/mL
[12]
  MIC: 8 µg/mL
[13]
  MIC: 8 µg/mL
[14]
  MIC: 0.5 µg/mL
[15]
  MIC: 0.06 µg/mL
[16]
  MIC: 0.002 µg/mL
[17]
  MIC: 16 µg/mL
[18]
  MIC: 16 µg/mL
[19]
  MIC: 0.002 µg/mL
[20]
  MIC: 0.002 µg/mL
[21]
  MIC: 0.002 µg/mL
[22]
  MIC: 0.03 µg/mL
[23]
  MIC: 0.25 µg/mL
[24]
  MIC: 0.03 µg/mL
[25]
  MIC: 8 µg/mL
[26]
  IC50: 11400 nM
[27]
  Activity: Active
[28]
  MIC: ≤ 0.25 µg/mL
[29]
  MIC: 16 µg/mL
[30]
  fold change (FC): 4000
[31]
  fold change (FC): 8000
[32]
  inhibition: 50%

## Nc1nc(N)c2c(ccc3c2ccn3Cc2ccccc2F)n1
[1]
  inhibition: 76.2%
[2]
  MIC: 0.002 µg/mL
[3]
  MIC: 1 µg/mL
[4]
  MIC: 1 µg/mL
[5]
  IC50: 2.36 nM
[6]
  deltaH: -20.4 kcal/mol
[7]
  TdeltaS: -19.4 kcal/mol
[8]
  Kd: 1.57 nM
[9]
  deltaG: -9.14 kcal/mol
[10]
  MIC: 0.03 µg/mL
[11]
  MIC: 8 µg/mL
[12]
  MIC: 8 µg/mL
[13]
  MIC: 0.06 µg/mL
[14]
  MIC: 0.125 µg/mL
[15]
  MIC: 2 µg/mL
[16]
  MIC: 0.03 µg/mL
[17]
  MIC: 16 µg/mL
[18]
  MIC: 16 µg/mL
[19]
  MIC: 0.06 µg/mL
[20]
  MIC: 0.002 µg/mL
[21]
  MIC: 0.002 µg/mL
[22]
  MIC: 0.03 µg/mL
[23]
  MIC: 0.5 µg/mL
[24]
  MIC: 0.03 µg/mL
[25]
  MIC: 8 µg/mL
[33]
  Activity: Dde
[34]
  Activity: 3 log10CFU/ml
[35]
  Activity: Active
[36]
  Activity: Active
[37]
  Activity: Active
[38]
  fractional inhibitory concentration index (FICI): 0.02
[39]
  fractional inhibitory concentration index (FICI): 0.07
[40]
  Activity: Dde
[41]
  Activity: 50%
[42]
  Activity: 100 CFU/ml
[26]
  IC50: 11200 nM
[27]
  Activity: Active
[28]
  MIC: 1 µg/mL
[29]
  MIC: 8 µg/mL
[43]
  Ratio IC50: 20
[31]
  fold change (FC): 4000
[44]
  Activity: Tde
[45]
  Activity: Dde
[46]
  deltaG: -5.82 kcal/mol
[47]
  TdeltaS: -20.9 kcal/mol
[32]
  inhibition: 50%

Source: ChEMBL document CHEMBL5154653, “The discovery of 1, 3-diamino-7H-pyrrol[3, 2-f]quinazoline compounds as potent antimicrobial antifolates” (Eur J Med Chem, 2022)
